Laboratory results: patent US20080312331A1, “Method of Treating Dailysis-Induced Hypotension” (SOLAPHARM, INC., priority 2005, published 2008)
“Also recorded” adds a separate entry of the source.

Test: Hemodialysis session in a patient with end-stage renal disease who regularly develops hypotension during dialysis (Example 2)
Type: in vivo
Description: A patient with end-stage renal disease is scheduled for hemodialysis at 11 AM. The patient's resting blood pressure is 130/80 mm Hg. At 10:40 AM the day of the 11 AM hemodialysis, the patient swallows a tablet comprising 16 mg of desglymidodrine (approximately equal in activity to 20 mg of midodrine).
In a subsequent dialysis day, the patient swallows a desglymidodrine 16 mg. tablet 20 minutes before the onset of dialysis. […] Intravenous desglymidodrine is then promptly administered by a nurse by a push infusion at a dose of 8 mg.

In the case of COc1ccc(OC)c(C(O)CN)c1 (stereo not drawn) [desglymidodrine], the “blood pressure after treatment of intradialytic hypotension” value (8 mg intravenous push infusion after hypotension developed one hour into the dialysis session) is reported as “blood pressure normalizes”, the “adverse symptoms during hemodialysis” value (end-stage renal disease patient, 16 mg tablet swallowed 20 minutes before hemodialysis) is reported as “no adverse symptoms are exhibited” and the “blood pressure during hemodialysis” value (end-stage renal disease patient, 16 mg tablet swallowed 20 minutes before onset of hemodialysis) is reported as “blood pressure stays stable; also recorded: develops hypotension”.
